# How the values were obtained:
# [1] = system: Candida albicans, Trichophyton spp., Epidermophyton spp., and Aspergillus spp.; conditions: cited from earlier work
# [2] = in vivo; cited from earlier work
# [3] = in vivo; cited from earlier work; remark: listed apart in the source
# AP-1 [4] = assay: IL-1 induced AP-1 binding activity in chondrocyte lysates (FIG. 3); assay type: cell-based; conditions: lysates from chondrocytes pretreated with paclitaxel
# [5] = system: collagenase and stromelysin; assay: IL-1 induced collagenase and stromelysin RNA levels in chondrocytes (FIG. 4, 5); assay type: cell-based; conditions: pretreatment
# cartilage = assay: Hartley guinea pig knees with ACL damage, joint and cartilage score (FIG. 7, 8); assay type: in vivo
# AP-1 [6] = assay: IL-1 stimulated AP-1 transcriptional activity (AP-1 driven CAT reporter gene) in transfected chondrocytes; assay type: cell-based; conditions: paclitaxel 10^−7 to 10^−5 M, concentration dependent; IL-1 50 ng/ml, 24 hours
# Method: Chondrocytes were transfected with constructs containing an AP-1 driven CAT reporter gene, and stimulated with IL-1, IL-1 (50 ng/ml) was added and incubated for 24 hours in the absence and presence of paclitaxel at various concentrations. […] The data noted with an asterisk (*) have significance compared with IL-1-induced CAT activity according to a t-test, P<0.05. The results shown are representative of three independent experiments.
# AP-1 [7] = assay: IL-1 induced AP-1 DNA binding activity, gel mobility shift assay with chondrocyte extracts; assay type: cell-based; conditions: chondrocytes pretreated with paclitaxel 10^−7 to 10^−5 M for 24 hours
# Method: Binding activity was assayed with a radiolabeled human AP-1 sequence probe and gel mobility shift assay. Extracts from chondrocytes untreated or treated with various amounts of paclitaxel (10^−7to 10^−5 M) followed by IL-1β (20 ng/ml) were incubated with excess probe on ice for 30 minutes, followed by non-denaturing gel electrophoresis. The “com” lane contains excess unlabeled AP-1 oligonucleotide. The results shown are representative of three independent experiments.
# [8] = system: ACL injured guinea pig knees (osteoarthritis); assay: Inhibition of cartilage damage in the ACL injured Hartley guinea pig model of osteoarthritis; assay type: in vivo, Hartley guinea pigs; conditions: hyaluronic acid formulation; low dose (dose 1) and medium dose (dose 2); 5 weekly intra-articular injections; ten weeks after injury
# Text: The skin on the right knee was sterilized. A 20G needle was introduced in the knee joint using a medial approach and the anterior cruciate ligament was cut with the sharp end of the needle.
# Two weeks after the initial procedure, the animals were anesthetized with isoflurane (5% induction −2% maintenance) and weighed. […] The skin of the injured knee was sterilised. […] Injections were repeated weekly for a total of 5 injections. Sample size was N=12 for each formulation. Two doses of paclitaxel and control formulation were tested.
# A final knee measurement was taken. The skin over the knee area was removed without damaging subcutaneous tissues. The knee joints were then harvested en bloc and placed into a formaldehyde (37%)/acetic acid solution (5:1 ratio) for fixation. Samples were sent to an independent laboratory for the conduct of histological preparation of joints and assessment by a pathologist for signs of cartilage damage.
# Briefly knee sections were made to examine cartilage and slides were stained with H&E stain. […] Bar graphs were constructed from each group and compared.
# MMP-1 (collagenase-1) = assay: IL-1 induced MMP-1 (collagenase) mRNA expression in chondrocytes, Northern blot; assay type: cell-based
# Method: (§1) Cells were treated with paclitaxel at various concentrations (10^−7 to 10^−5 M) for 24 hours, then treated with IL-1β (20 ng/ml) for additional 18 hours in the presence of paclitaxel. Total RNA was isolated, and the MMP-1 mRNA levels were determined by Northern blot analysis. The blots were subsequently stripped and reprobed with ^32P-radiolabeled rat GAPDH cDNA, which was used as a housekeeping gene. […] Quantitation of collagenase-1 and stromelysin-expression mRNA levels were conducted. The MMP-1 and MMP-3 expression levels were normalized with GAPDH.
# MMP-3 (stromelysin) = assay: IL-1 induced MMP-3 (stromelysin) mRNA expression in chondrocytes, Northern blot; assay type: cell-based
# Method: as §1
# [9] = system: Chick Chorioallantoic Membrane (CAM); assay: Chick chorioallantoic membrane (CAM) angiogenesis assay; assay type: in vivo; conditions: for Inhibition/n: 48 hours exposure
# Method: Fertilized, domestic chick embryos were incubated for 3 days prior to shell-less culturing. In this procedure, the egg contents were emptied by removing the shell located around the air space. The interior shell membrane was then severed and the opposite end of the shell was perforated to allow the contents of the egg to gently slide out from the blunted end. The egg contents were emptied into round-bottom sterilized glass bowls and covered with petri dish covers. These were then placed into an incubator at 90% relative humidity and 3% CO2 and incubated for 3 days.
# Paclitaxel (Sigma, St. Louis, […].) was mixed at concentrations of 0.25, 0.5, 1, 5, 10, 30 μg per 10 ul aliquot of 0.5% aqueous methylcellulose. […] Ten microliter aliquots of this solution were dried on parafilm for 1 hour forming disks 2 mm in diameter. The dried disks containing paclitaxel were then carefully placed at the growing edge of each CAM at day 6 of incubation. Controls were obtained by placing paclitaxel-free methylcellulose disks on the CAMs over the same time course. After a 2 day exposure (day 8 of incubation) the vasculature was examined with the aid of a stereomicroscope. Liposyn II, a white opaque solution, was injected into the CAM to increase the visibility of the vascular details. The vasculature of unstained, living embryos were imaged using a Zeiss stereomicroscope which was interfaced with a video camera (Dage-MTI Inc., Michigan City, Ind.). […] Image negatives were then made on a graphics recorder (Model 3000; Matrix Instruments, Orangeburg, N.Y.).
# The membranes of the 8 day-old shell-less embryo were flooded with 2% glutaraldehyde in 0.1 M sodium cacodylate buffer; additional fixative was injected under the CAM. After 10 minutes in situ, the CAM was removed and placed into fresh fixative for 2 hours at room temperature. The tissue was then washed overnight in cacodylate buffer containing 6% sucrose. The areas of interest were postfixed in 1% osmium tetroxide for 1.5 hours at 4° C. The tissues were then dehydrated in a graded series of ethanols, solvent exchanged with propylene oxide, and embedded in Spurr resin. Thin sections were cut with a diamond knife, placed on copper grids, stained, and examined in a Joel 1200EX electron microscope. Similarly, […] sections were cut and stained with […] for light microscopy.
# At day 11 of development, chick embryos were used for the corrosion casting technique. Mercox resin (Ted Pella, Inc., Redding, Calif.) was injected into the CAM vasculature using a 30-gauge hypodermic needle. […] After injection, the plastic was allowed to sit in situ for an hour at room temperature and then overnight in an oven at 65° C. The CAM was then placed in 50% aqueous solution of sodium hydroxide to digest all organic components. The plastic casts were washed extensively in distilled water, air-dried, coated with gold/palladium, and viewed with the Philips 501B scanning electron microscope.
# After 48 hours exposure to paclitaxel at concentrations of 0.25, 0.5, 1, 5, 10, or 30 μg, each CAM was examined under living conditions with a stereomicroscope equipped with a video/computer interface in order to evaluate the effects on angiogenesis. This imaging setup was used at a magnification of 160× which permitted the direct visualization of blood cells within the capillaries; thereby blood flow in areas of interest may be easily assessed and recorded. For this study, the inhibition of angiogenesis was defined as an area of the CAM (measuring 2-6 mm in diameter) lacking a capillary network and vascular blood flow. Throughout the experiments, avascular zones were assessed on a 4 point avascular gradient (see the table below). This scale represents the degree of overall inhibition with maximal inhibition represented as a 3 on the avascular gradient scale. Paclitaxel was very consistent and induced a maximal avascular zone (6 mm in diameter or a 3 on the avascular gradient scale) within 48 hours depending on its concentration. […]
# [10] = system: knee joint (synovial cavity); assay: Maximum tolerated dose (MTD) of a drug after intra-articular injection; conditions: for MTD (dose for which knee inflammation was not observed): 0.1 mL intra-articular
# Method: Male Hartley guinea pigs, at least 6 weeks old, were anaesthetized using 5% isoflurane in an enclosed chamber. The animals were weighed and then transferred to the surgical table where anesthesia was maintained by nose cone with 2% isoflurane. The knee area on both legs was shaved and knee width at the head of the femur was measured on both knees. The skin on the right knee was sterilized. A 25G needle was introduced into the synovial cavity using a medial approach and 0.1 mL of the test formulation was injected. Three or seven days after the injection, the animals were sacrificed by cardiac injection of 0.7 mL Euthanyl under deep anesthesia (5% isoflurane). Sample size was N=3 for each formulation.
# Knee function was assessed before sacrifice by recording changes in walking behavior and signs of tenderness. The animal was weighed immediately after sacrifice. The width of both knees at the head of the femur was then measured with calipers. The knee joint was dissected open by transecting the quadriceps tendon, cutting through the lateral and medial articular capsule and flipping the patella over the tibia. Knee inflammation was assessed by recording signs of swelling, vascularization, fluid accumulation and change in color in subcutaneous tissue as well as inner joint structures. Photographs were taken to document findings. All data was recorded by observers blinded to the treatment groups.
# [11] = molecular target: protein tyrosine phosphatase 1B (PTP1B) (Homo sapiens, UniProt P18031); conditions: cited from earlier work
# Sequence of protein tyrosine phosphatase 1B (PTP1B) (P18031 whole entry): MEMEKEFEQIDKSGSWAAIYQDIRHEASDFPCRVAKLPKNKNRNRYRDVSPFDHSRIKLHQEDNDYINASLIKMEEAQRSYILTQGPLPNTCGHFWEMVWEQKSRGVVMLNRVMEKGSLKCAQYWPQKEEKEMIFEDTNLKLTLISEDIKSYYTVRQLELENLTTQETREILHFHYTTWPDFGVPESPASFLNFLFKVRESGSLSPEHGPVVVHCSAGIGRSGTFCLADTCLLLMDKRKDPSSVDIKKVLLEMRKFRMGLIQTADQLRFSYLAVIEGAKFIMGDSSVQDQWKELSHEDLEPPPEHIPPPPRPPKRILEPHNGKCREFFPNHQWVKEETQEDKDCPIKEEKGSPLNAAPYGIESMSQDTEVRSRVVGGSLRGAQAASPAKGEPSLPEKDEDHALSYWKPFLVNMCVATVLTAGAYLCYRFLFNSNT
# [12] = system: phosphatases of regenerating liver (PRL); conditions: cited from earlier work
# endo-exonuclease = conditions: PCT Publication No. WO 01/35935; cited from earlier work
# [13] = system: Candida spp., Aspergillus spp., Sporothrix schenckii, Penicillium marneffei, Malassezia furfur, Cryptococcus neoformans, Trichosporon spp. and …; conditions: against most of the listed species; cited from earlier work
# [14] = 10^−5 M paclitaxel, pretreatment 24 hours
smiles,measurement,setting,value
"Cc1cc(C2CCCCC2)n(O)c(=O)c1 [Ciclopirox, ciclopirox]",antifungal activity,[1],fungistatic and fungicidal
"CN(C)/N=N/c1[nH]cnc1C(N)=O [Dacarbazine, dacarbazine]",absorption from the GI tract,[2],poorly absorbed
"O=C(Nc1ccc([N+](=O)[O-])cc1Cl)c1cc(Cl)ccc1O [Niclosamide, niclosamide]",toxicity in mammals,[3],very low toxicity
CC(=O)O[C@H]1C(=O)[C@@]2(C)[C@H]([C@H](OC(=O)c3ccccc3)[C@]3(O)C[C@H](OC(=O)[C@H](O)[C@@H](NC(=O)c4ccccc4)c4ccccc4)C(C)=C1C3(C)C)[C@]1(OC(C)=O)CO[C@@H]1C[C@@H]2O [paclitaxel],IL-1 induced binding activity,AP-1 [4],decreased
same,IL-1 induction of collagenase and stromelysin RNA levels,[5],can be inhibited
same,"average rank of joint scores, dose response trend","cartilage; Hartley guinea pig knees with ACL damage, p<0.02",statistically significant
same,cartilage in knee cross section,cartilage; dose 1 (low dose),fraying of cartilage
same,cartilage in knee cross section,cartilage; dose 2 (medium dose),minor defects to cartilage
same,IL-1 induced AP-1 reporter gene CAT activity,AP-1 [6],reduced IL-1 induced AP-1 reporter gene CAT activity
same,IL-1 induced AP-1 binding to oligonucleotides,AP-1 [7],IL-1 induced binding activity decreased
same,cartilage damage (pathologist score),[8],statistical reduction in cartilage damage relative to control
same,IL-1 induced collagenase mRNA levels,MMP-1 (collagenase-1); [14],complete inhibition
same,concentration capable of inhibiting collagenase expression in vitro,MMP-1 (collagenase-1); chondrocytes,10^−6 M
same,IL-1 induced stromelysin mRNA levels,MMP-3 (stromelysin); [14],complete inhibition
same,concentration capable of inhibiting stromelysin expression in vitro,MMP-3 (stromelysin); chondrocytes,10^−6 M
same,Inhibition/n,[9]; 0.25 ug in methylcellulose (10 ul),2/11
same,Inhibition/n,[9]; 0.5 ug in methylcellulose (10 ul),6/11
same,Inhibition/n,[9]; 1 ug in methylcellulose (10 ul),6/15
same,Inhibition/n,[9]; 5 ug in methylcellulose (10 ul),20/27
same,Inhibition/n,[9]; 10 ug in methylcellulose (10 ul),16/21
same,Inhibition/n,[9]; 30 ug in methylcellulose (10 ul),31/31
same,maximal avascular zone on the avascular gradient scale,[9]; within 48 hours depending on concentration,3
same,MTD (dose for which knee inflammation was not observed),"[10]; co-solvent formulation, 3 day evaluation",1.5 mg/mL
same,MTD (dose for which knee inflammation was not observed),"[10]; triblock gel formulation according to Example 34, evaluation at 7 days",0.075 mg/mL
same,tolerated doses,"[10]; triblock gel formulation, evaluation after three days",up to 0.15 mg/ml
N=C(N)c1ccc(OCCCCCOc2ccc(C(=N)N)cc2)cc1 [pentamidine],inhibition of PTP1B,[11],effective inhibitor
same,inhibition of oncogenic phosphatases of regenerating liver,[12],potent inhibitor
same,inhibition of the activity of endo-exonuclease,endo-exonuclease,inhibit the activity
"CN(C/C=C/C#CC(C)(C)C)Cc1cccc2ccccc12.Cl [terbinafine, terbinafine hydrochloride]",in vitro antifungal activity,[13],has activity

# From US20070299043A1, “Anti-scarring drug combinations and use thereof” (priority 2005, published 2007)
